The results in this text go back to patent publication US20050054006A1, “Combinatorial fluorescent library based on the styryl scaffold” (New York University, priority 2003, published 2005).

A short description of series [1]: Fluorescence excitation/emission of the styryl dye library compounds. Format: physicochemical.
Series [2] has as its system UACC-62 human melanoma cells. As to the kind of experiment: Organelle localization in live cells by fluorescence microscopy. The settings on record: live UACC-62 cells, fluorescence microscope λex=405, 490, 570 nm; λem>510 nm.

`COc1ccc2c(ccc(/C=C/c3ccc4ccccc4c3)[n+]2C)c1.[I-]` [Compound I33]: in series [1] (EX/EM peak no. 1), the “EM(nm)” value is reported as 640 nm and the “EX(nm)” value is 420 nm. Besides, in series [1] (EX/EM peak no. 2), the “EM(nm)” value amounted to 560 nm and the “EX(nm)” value is on record as 320-460 nm. Besides, the LOCALIZATION entry in series [2] was “VESICLE and MITO and NUCLEI”.
On to `C[n+]1c(C=Cc2cccc([N+](=O)[O-])c2)ccc2ccccc21.[I-]` [Compound H21], for which, in series [1] (EX/EM peak no. 1), the “EM(nm)” value is on record as 630 nm and the “EX(nm)” value is on record as 420-550 nm. Also, the LOCALIZATION result in series [2] is “MITO and NUCLEOLI”.
With `COc1ccccc1C=Cc1cc[n+](C)c(-c2cc(C)ccn2)c1.[I-]` [Compound J9], in series [1] (EX/EM peak no. 1), the “EM(nm)” value amounted to 520 nm and the “EX(nm)” value is listed as 420(broad) nm. Also, the LOCALIZATION result in series [2] is “MITO”.
For `COc1ccc2c(ccc(C=Cc3ccccc3[N+](=O)[O-])[n+]2C)c1.[I-]` [Compound I20], in that order: 620 nm, 420(broad) nm and “NUCLEOLI”.
With `COc1ccc2c(ccc(C=Cc3ccc4c(c3)Cc3ccccc3-4)[n+]2C)c1.[I-]` [Compound I28], in series [1] (EX/EM peak no. 1), the “EM(nm)” value is given as 660 nm and the “EX(nm)” value is 450(broad) nm. Also, the LOCALIZATION entry in series [2] is on record as “NUCLEOLI”.
On to `Cc1ccc[n+](C)c1C=CC=Cc1ccc(N(C)C)cc1.[I-]` [Compound D37], for which, in series [1] (EX/EM peak no. 1), the “EM(nm)” value turned out to be 650 nm and the “EX(nm)” value is given as 470(broad) nm. For the same compound, the LOCALIZATION result in series [2] is reported as “MITO”.
In the same order, the values of `COc1ccc2c(ccc(C=Cc3ccc(OC)c4ccccc34)[n+]2C)c1.[I-]` [Compound I14] are 580-590 nm, 460 nm and “VESICLE”.
As for `CN(C)c1ccc(C=Cc2cc[n+](C)cc2)c2ccccc12.[I-]` [Compound A27], in series [1] (EX/EM peak no. 1), the “EM(nm)” value stood at 640 nm and the “EX(nm)” value turned out to be 450 nm. The LOCALIZATION result in series [2] was “CYTO”.
`Cc1ccnc(-c2cc(C=Cc3c(F)c(F)c(F)c(F)c3F)cc[n+]2C)c1.[I-]` [Compound J31]: the “EM(nm)” value in series [1] (EX/EM peak no. 1) is given as 520 nm. Further, the LOCALIZATION result in series [2] is recorded as “MITO”.
Turning to `COc1ccc(C=Cc2ccc3cc(OC)ccc3[n+]2C)cc1.[I-]` [Compound I10], the “EM(nm)” value in series [1] (EX/EM peak no. 1) is reported as 520 nm; in series [1] (EX/EM peak no. 2) it was 640 nm. Further, the LOCALIZATION result in series [2] is “CYTO and VESICLE”.
As for `COc1cc(C=Cc2cc[n+](C)cc2)cc(OC)c1OC.[I-]` [Compound A13], in series [1] (EX/EM peak no. 1), the “EM(nm)” value came out at 550 nm and the “EX(nm)” value was determined as 390 nm.
For `COc1ccc2c(ccc(C=Cc3c4ccccc4cc4ccccc34)[n+]2C)c1.[I-]` [Compound I34], in that order: 650 nm and 490 nm.
On to `COc1ccc(/C=C/c2cc[n+](C)c(Br)c2)cc1.[I-]` [Compound F10], for which, in series [1] (EX/EM peak no. 1), the “EM(nm)” value is reported as 520 nm and the “EX(nm)” value is 460 nm.
For `COc1ccc(C=Cc2cc[n+](C)c(-c3cc(C)ccn3)c2)cc1OC.[I-]` [Compound J11], in that order: 560 nm and 420 nm.
For `Fc1ccccc1C=Cc1cc[n+](C23CC4CC(CC(C4)C2)C3)cc1.[Br-]` [Compound B29], in that order: 560 nm and 400-420 nm.
With `COc1cc(C=Cc2cc[n+](C)c3ccccc23)cc(OC)c1OC.[I-]` [Compound G13], in series [1] (EX/EM peak no. 1), the “EM(nm)” value is reported as 620 nm and the “EX(nm)” value is given as 420 nm.
For `COc1ccccc1C=Cc1cc[n+](C)c(Br)c1.[I-]` [Compound F9], in that order: 520 nm and 400 nm.
With `C[n+]1ccc(C=Cc2ccccc2F)c2ccccc21.[I-]` [Compound G29], in series [1] (EX/EM peak no. 1), the “EM(nm)” value was 560 nm and the “EX(nm)” value was determined as 450 nm.
For `COc1ccc(C=Cc2cccc(C)[n+]2C)cc1O.[I-]` [Compound L15], in that order: 570 nm and 390 nm.
Turning to `C[n+]1ccc(/C=C/c2ccc3c(c2)OCO3)c2ccccc21.[I-]` [Compound G39], in series [1] (EX/EM peak no. 1), the “EM(nm)” value came out at 590 nm and the “EX(nm)” value turned out to be 430 nm.
Take `Fc1ccc(C=Cc2cc[n+](C34CC5CC(CC(C5)C3)C4)cc2)cc1.[Br-]` [Compound B30]: the “EM(nm)” value in series [1] (EX/EM peak no. 1) worked out at 590 nm.
Turning to `C[n+]1c(C=Cc2c3ccccc3cc3ccccc23)ccc2ccccc21.[I-]` [Compound H34], in series [1] (EX/EM peak no. 1), the “EM(nm)” value was found to be 650 nm and the “EX(nm)” value is on record as 460 nm.
Take `CCc1ccc(C=Cc2cccc3ccccc23)[n+](C)c1.[I-]` [Compound E32]: in series [1] (EX/EM peak no. 1), the “EM(nm)” value worked out at 560 nm and the “EX(nm)” value came out at 420 nm.
`Cc1cccc(C=C/C=C/c2ccc(N(C)C)cc2)[n+]1C.[I-]` [Compound L37]: in series [1] (EX/EM peak no. 1), the “EM(nm)” value is given as 680 nm and the “EX(nm)” value is 480 nm.
In the same order, the values of `CN(C)c1ccc(C=Cc2cc[n+](C)c(Br)c2)c2ccccc12.[I-]` [Compound F27] are 640 nm and 460 nm.
In the same order, the values of `COc1cc(OC)c(OC)cc1C=Cc1cccc(C)[n+]1C.[I-]` [Compound L38] are 570 nm and 420 nm.
For the compound `C[n+]1ccccc1C=Cc1ccccn1.[I-]` [Compound C40], in series [1] (EX/EM peak no. 1), the “EM(nm)” value is listed as 610 nm and the “EX(nm)” value is on record as 390 nm.
Take `Cc1ccnc(-c2cc(C=Cc3ccc(N(C)C)c4ccccc34)cc[n+]2C)c1.[I-]` [Compound J27]: in series [1] (EX/EM peak no. 1), the “EM(nm)” value is recorded as 670 nm and the “EX(nm)” value was 460 nm.
In the same order, the values of `COc1cc(C=Cc2cccc(C)[n+]2C)cc(OC)c1OC.[I-]` [Compound L13] are 540 nm and 380 nm.
With `COc1ccc2ccccc2c1C=Cc1cc[n+](C)c(-c2cc(C)ccn2)c1.[I-]` [Compound J23], in series [1] (EX/EM peak no. 1), the “EM(nm)” value is 570 nm and the “EX(nm)” value is 430-460 nm.
Turning to `C[n+]1c(C=Cc2ccc(Cl)cc2)ccc2ccccc21.[I-]` [Compound H6], in series [1] (EX/EM peak no. 1), the “EM(nm)” value is 640 nm and the “EX(nm)” value is 530 nm.
In the same order, the values of `C[n+]1ccc(C=Cc2ccc3ccc4cccc5ccc2c3c45)c2ccccc21.[I-]` [Compound G41] are 660 nm and 500 nm.
On to `CCc1ccc(/C=C/c2c[nH]c3ccccc23)[n+](C)c1.[I-]` [Compound E24], for which, in series [1] (EX/EM peak no. 1), the “EM(nm)” value came out at 510 nm and the “EX(nm)” value is given as 430 nm.
`Cc1cccc(C=Cc2ccc(O)cc2)[n+]1C.[I-]` [Compound L16]: in series [1] (EX/EM peak no. 1), the “EM(nm)” value worked out at 500 nm and the “EX(nm)” value amounted to 390 nm.
In the case of `C[n+]1ccc(C=Cc2ccc(O)cc2)cc1.[I-]` [Compound A16], in series [1] (EX/EM peak no. 1), the “EM(nm)” value is given as 510 nm and the “EX(nm)” value is 390-420 nm.
Turning to `C[n+]1c(C=Cc2ccc3ccc4cccc5ccc2c3c45)ccc2ccccc21.[I-]` [Compound H41], in series [1] (EX/EM peak no. 1), the “EM(nm)” value is reported as 640 nm and the “EX(nm)” value stood at 480 nm.
For `CCc1ccc(/C=C/c2ccc(N(C)C)c3ccccc23)[n+](C)c1.[I-]` [Compound E27], in series [1] (EX/EM peak no. 1), the “EM(nm)” value was 620 nm and the “EX(nm)” value came to 430 nm.
On to `Cc1ccnc(-c2cc(C=CC=Cc3ccccc3[N+](=O)[O-])cc[n+]2C)c1.[I-]` [Compound J36], for which, in series [1] (EX/EM peak no. 1), the “EM(nm)” value amounted to 540 nm and the “EX(nm)” value is 420 nm.
For `COc1ccc(C=Cc2ccc3ccccc3[n+]2C)cc1OC.[I-]` [Compound H11], in that order: 570 nm and 460 nm.
In the same order, the values of `C[n+]1ccc(C=Cc2ccc(F)cc2)cc1.[I-]` [Compound A30] are 590 nm and 420-440 nm.
In the same order, the values of `COc1cc(C=Cc2cccc[n+]2C)cc(OC)c1OC.[I-]` [Compound C13] are 540 nm and 380 nm.
In the case of `Cc1ccnc(-c2cc(/C=C/c3ccccn3)cc[n+]2C)c1.[I-]` [Compound J40], in series [1] (EX/EM peak no. 1), the “EM(nm)” value is reported as 580 nm and the “EX(nm)” value was 400 nm.
In the case of `C[n+]1ccc(/C=C/c2ccc(O)cc2)c2ccccc21.[I-]` [Compound G16], in series [1] (EX/EM peak no. 1), the “EM(nm)” value was determined as 560 nm and the “EX(nm)” value turned out to be 430 nm.
In the same order, the values of `C[n+]1c(C=Cc2ccc(Br)cc2)ccc2ccccc21.[I-]` [Compound H5] are 640 nm and 480 nm.
Consider `C(=Cc1c2ccccc2cc2ccccc12)c1cc[n+](C23CC4CC(CC(C4)C2)C3)cc1.[Br-]` [Compound B34], for which, in series [1] (EX/EM peak no. 1), the “EM(nm)” value is given as 610 nm and the “EX(nm)” value was 460 nm.
Regarding `CN(C)c1ccc(C=CC=Cc2cccc[n+]2C)cc1.[I-]` [Compound C37], in series [1] (EX/EM peak no. 1), the “EM(nm)” value worked out at 680 nm and the “EX(nm)” value is 520 nm.
In the same order, the values of `CN(C)c1ccc(/C=C/C=C/c2cc[n+](C)c3ccccc23)cc1.[I-]` [Compound G37] are 670 nm and 530 nm.
On to `COc1ccc(C=Cc2cc[n+](C)c3ccccc23)cc1O.[I-]` [Compound G15], for which, in series [1] (EX/EM peak no. 1), the “EM(nm)” value is given as 560 nm and the “EX(nm)” value is 420-460 nm.
Regarding `C[n+]1ccc(C=Cc2ccc3ccccc3c2)cc1.[I-]` [Compound A33], in series [1] (EX/EM peak no. 1), the “EM(nm)” value was determined as 600 nm and the “EX(nm)” value was 360-420 nm.
For `COc1cc(C=Cc2ccc3ccccc3[n+]2C)cc(OC)c1OC.[I-]` [Compound H13], in series [1] (EX/EM peak no. 1), the “EM(nm)” value is listed as 590 nm and the “EX(nm)” value amounted to 420 nm.
As for `CN(C)c1ccc(C=Cc2cc[n+](C34CC5CC(CC(C5)C3)C4)cc2)cc1.[Br-]` [Compound B19], in series [1] (EX/EM peak no. 1), the “EM(nm)” value amounted to 610 nm and the “EX(nm)” value was 380-540 nm.
In the same order, the values of `COc1cc(OC)c(OC)cc1C=Cc1cc[n+](C)cc1.[I-]` [Compound A38] are 540 nm and 410 nm.
For `CCc1ccc(/C=C/c2ccc3c(c2)OCO3)[n+](C)c1.[I-]` [Compound E39], in that order: 500 nm and 390-420 (broad) nm.
